{"source": "patent WO2010003376A1", "about": "“Methods for treatment and/or prevention of cancer with andrographolide (and) and use thereof” (Chinese University of Hong Kong CUHK, priority 2008, dated 2010)", "key": {"Bcl-2": {"system": "Bcl-2", "experiment": "Western blot of Bcl-2 in rat liver", "format": "in vivo", "conditions": "both experiments, 10 mg/kg orally"}, "HepG2 cells [1]": {"system": "HepG2 cells", "experiment": "Flow cytometry (cell cycle analysis, PI staining)", "format": "cell-based, human"}, "HepG2 cells [2]": {"system": "HepG2 cells", "experiment": "DNA fragmentation (DNA gel electrophoresis)", "format": "cell-based, human", "conditions": "50 μM, 72 hrs"}, "Mdm2": {"system": "Mdm2", "experiment": "Western blot of Mdm2 in rat liver nuclei", "format": "in vivo", "conditions": "both experiments, 10 mg/kg orally, vs positive control (p < 0.05)"}, "p53 mRNA": {"system": "p53 mRNA", "experiment": "Semi-quantitative RT-PCR of p53 mRNA in rat liver", "format": "in vivo", "conditions": "both experiments, 10 mg/kg orally, vs positive control (p < 0.05)"}, "Mdm2 mRNA": {"system": "Mdm2 mRNA", "experiment": "Semi-quantitative RT-PCR of Mdm2 mRNA in rat liver", "format": "in vivo", "conditions": "both experiments, 10 mg/kg orally, vs positive control (p < 0.05)"}, "p21 (Waf1/Cip1/Sdi1)": {"system": "p21 (Waf1/Cip1/Sdi1)", "experiment": "Western blot of p21 in rat liver", "format": "in vivo", "conditions": "both experiments, 10 mg/kg orally, vs positive control"}, "[3]": {"system": "hepatocarcinogenesis in rats (DEN & CCl4)", "experiment": "Gross examination of rat liver, DEN/CCl4 hepatocarcinogenesis", "format": "in vivo"}, "PCNA": {"system": "PCNA", "experiment": "Western blot of PCNA in rat liver", "format": "in vivo", "conditions": "10 mg/kg orally; for PCNA expression (PCNA : β-actin ratio): vs positive control"}, "[4]": {"system": "hepatocarcinogenesis in rats (DEN & CCl4)", "experiment": "Relative liver weight, DEN/CCl4 hepatocarcinogenesis", "format": "in vivo, rat", "conditions": "both promotion and progression, 10 mg/kg orally"}, "[5]": {"system": "gene expressions of HepG2 cells", "experiment": "cDNA microarray analysis of gene expression (human toxicology and drug metabolism)", "format": "cell-based", "conditions": "16 μM, 48 hrs, vs control"}, "[6]": {"system": "WRL 68, human normal liver embryo cells", "experiment": "Neutral red assay (cell viability), WRL 68", "format": "cell-based", "conditions": "for IC50: Homo sapiens, WRL68, read-out: IC50 (concentration that reduces cell viability by 50%)"}, "Bax": {"system": "Bax", "experiment": "Western blot of Bax in rat liver", "format": "in vivo", "conditions": "both experiments, 10 mg/kg orally"}, "[7]": {"system": "HepG2 cells, the human liver cancer cells", "experiment": "Neutral red assay (cell viability), HepG2", "format": "cell-based", "conditions": "for IC50: Homo sapiens, read-out: IC50 (concentration that reduces cell viability by 50%)"}, "GST-P": {"system": "GST-P", "experiment": "Immunohistochemical staining of GST-P foci in rat liver", "format": "in vivo"}, "[8]": {"system": "liver damage in rats (DEN & CCl4)", "experiment": "Serum AST and ALT assays, DEN/CCl4 hepatocarcinogenesis", "format": "in vivo, rat", "conditions": "10 mg/kg orally"}, "rat liver (DEN & CCl4)": {"system": "rat liver (DEN & CCl4)", "experiment": "Hematoxylin & Eosin staining of rat liver sections", "format": "in vivo", "conditions": "10 mg/kg orally"}, "wild type p53": {"system": "wild type p53", "experiment": "Immunoprecipitation and western blot of wild type p53 in rat liver nuclei", "format": "in vivo", "conditions": "10 mg/kg orally"}, "[9]": {"system": "total p53 (wild type and mutant)", "experiment": "Western blot of total p53 in rat liver nuclei", "format": "in vivo", "conditions": "10 mg/kg orally"}, "[10]": {"system": "Clone 9, rat normal liver cells", "experiment": "Neutral red assay (cell viability), Clone 9", "format": "cell-based", "conditions": "for IC50: Rattus norvegicus, read-out: IC50 (concentration that reduces cell viability by 50%)"}, "[11]": {"conditions": "progression experiment, p < 0.05"}}, "note": "Read-outs that look alike come from different tables or passages of the source.", "data": [{"smiles": "C=C1CC[C@@H]2[C@](C)(CO)[C@H](O)CC[C@@]2(C)[C@@H]1C/C=C1/C(=O)OC[C@H]1O", "note": "[AND, andrographolide]", "values": [{"measurement": "Bcl-2 expression", "setting": "Bcl-2", "result": "an increase in Bcl-2 expression"}, {"measurement": "Bcl-2 protein expression (Bcl-2 : β-actin ratio)", "setting": "Bcl-2; vs positive control (p < 0.05)", "result": "significantly lower"}, {"measurement": "percentage of cells suspended in the sub G1 phase of the cell cycle", "setting": "HepG2 cells [1]; 25 μM (Fig. 7, 48 hrs)", "result": 13.1, "unit": "%"}, {"measurement": "accumulation of cells in G0/G1 phase of the cell cycle", "setting": "HepG2 cells [1]; 25 μM, 48 hrs (Fig. 7)", "result": 67.1, "unit": "%"}, {"measurement": "populations of cells suspended in S and G2/M phases", "setting": "HepG2 cells [1]; 12.5 and 25 μM AND, 48 hrs, vs control (P < 0.05)", "result": "significantly decreased"}, {"measurement": "accumulation of cells in the sub G1 and G0/G1 phases", "setting": "HepG2 cells [1]; 12.5 and 25 μM AND, 48 hrs, vs control cells", "result": "significantly induced the accumulation of cells"}, {"measurement": "cells suspended in sub G1 phase", "setting": "HepG2 cells [1]; 20 and 25 μM AND, 24 hrs, vs 1% DMSO", "result": "more cells were suspended in sub Gi phase than those treated with DMSO only"}, {"measurement": "population of cells suspended in G0/G1, S and G2/M phases", "setting": "HepG2 cells [1]; 20 and 25 μM AND, 24 hrs, vs control cells (P > 0.05)", "result": "no significant changes"}, {"measurement": "DNA fragmentation", "setting": "HepG2 cells [2]", "result": "fragmentation at around 200 bp was detected"}, {"measurement": "levels of Mdm2 protein (Mdm2 : β-actin ratio)", "setting": "Mdm2", "result": "significant decrease"}, {"measurement": "p53 mRNA expression (p53 : β-actin)", "setting": "p53 mRNA", "result": "significant reduction"}, {"measurement": "Mdm2 mRNA expression (Mdm2 : β-actin)", "setting": "Mdm2 mRNA", "result": "significantly reduced"}, {"measurement": "levels of p21 (p21 : β-actin ratio)", "setting": "p21 (Waf1/Cip1/Sdi1)", "result": "higher than positive control groups, but no significant difference is observed"}, {"measurement": "gross appearance of liver", "setting": "[3]; progression experiment, 10 mg/kg orally, 56th week", "result": "some nodules present on the surface of the AND-treated livers, but the structure of the livers generally resembled that of the normal livers"}, {"measurement": "gross appearance of liver", "setting": "[3]; promotion experiment, 10 mg/kg orally once daily, 28 weeks", "result": "had a smooth surface and generally resembled the negative control livers"}, {"measurement": "PCNA expression", "setting": "PCNA; both experiments", "result": "reduced in both experiments"}, {"measurement": "PCNA expression (PCNA : β-actin ratio)", "setting": "PCNA; progression experiment", "result": "The level of PCNA expression in DEN-CCl4 treated rat was found to be significantly higher than that in the negative control and AND-treated groups"}, {"measurement": "PCNA expression (PCNA : β-actin ratio)", "setting": "PCNA; promotion experiment", "result": "no significant difference"}, {"measurement": "relative liver weight (liver weight/body weight)", "setting": "[4]; vs negative control", "result": "No significant difference"}, {"measurement": "relative liver weight (liver weight/body weight)", "setting": "[4]; vs positive control", "result": "significant reduction"}, {"measurement": "expression of BCL2L2 (Bcl-w) gene", "setting": "[5]", "result": "down-regulated"}, {"measurement": "expression of BCL2 gene", "setting": "[5]", "result": "down-regulated"}, {"measurement": "expression of CCND1 gene", "setting": "[5]", "result": "down-regulated"}, {"measurement": "expression of CHEK2 gene", "setting": "[5]", "result": "down-regulated"}, {"measurement": "expression of CYP 2A6 gene", "setting": "[5]", "result": "down-regulated"}, {"measurement": "expression of CYP 2D6 gene", "setting": "[5]", "result": "down-regulated"}, {"measurement": "expression of IL1B gene", "setting": "[5]", "result": "under-expressed"}, {"measurement": "expression of NFKB2 gene", "setting": "[5]", "result": "under-expressed"}, {"measurement": "expression of NQO1 (NAD(P)H dehydrogenase quinone 1) gene", "setting": "[5]", "result": "up-regulated"}, {"measurement": "expression of RB1 gene", "setting": "[5]", "result": "up-regulated"}, {"measurement": "expression of SOD1 (superoxide dismutase 1) gene", "setting": "[5]", "result": "up-regulated"}, {"measurement": "expression of TYMS (thymidylate synthetase) gene", "setting": "[5]", "result": "up-regulated"}, {"measurement": "expression of XDH (xanthine dehydrogenase) gene", "setting": "[5]", "result": "up-regulated"}, {"measurement": "number of genes down-regulated 3-folds or more", "setting": "[5]", "result": "forty-two"}, {"measurement": "number of genes up-regulated 3-folds or more", "setting": "[5]", "result": "six"}, {"measurement": "IC50", "setting": "[6]; WRL 68, 24 hrs", "result": 57, "unit": "µM"}, {"measurement": "IC50", "setting": "[6]; WRL 68, 48 hrs", "result": 30, "unit": "µM"}, {"measurement": "IC50", "setting": "[6]; WRL 68, 72 hrs", "result": 35, "unit": "µM"}, {"measurement": "cytotoxicity", "setting": "[6]; WRL 68, at a concentration of 18 μM (Fig. 2)", "result": "significant cytotoxicity was also detectable"}, {"measurement": "Bax expression", "setting": "Bax", "result": "a reduction of Bax expression"}, {"measurement": "protein levels of Bax (Bax : β-actin ratio)", "setting": "Bax; vs positive control (p < 0.05)", "result": "significantly increased"}, {"measurement": "inhibitory effect on the proliferation of HepG2", "setting": "[7]; HepG2, human liver cancer cell line (Fig. 1)", "result": "significantly inhibitory effect"}, {"measurement": "IC50", "setting": "[7]; HepG2, 24 hrs", "result": 17.5, "unit": "µM"}, {"measurement": "IC50", "setting": "[7]; HepG2, 48 hrs", "result": 16, "unit": "µM"}, {"measurement": "IC50", "setting": "[7]; HepG2, 72 hrs", "result": 17, "unit": "µM"}, {"measurement": "IC50 for HepG2 cells compared with WRL 68 cells", "setting": "[7]; all three time periods (24, 48 and 72 hrs), P < 0.05", "result": "significantly lower"}, {"measurement": "number and area of GST-P positive foci", "setting": "GST-P; 10 mg/kg for 24 and 52 weeks, promotion and progression stages", "result": "a decrease in the number and area of GST-P positive foci"}, {"measurement": "GST-P expression in liver section", "setting": "GST-P; promotion experiment, 10 mg/kg orally", "result": "the expression of GST-P was present but the affected area was reduced"}, {"measurement": "serum ALT level", "setting": "[8]; [11]", "result": "significant reduction"}, {"measurement": "serum AST level", "setting": "[8]; [11]", "result": "significant reduction"}, {"measurement": "serum ALT level", "setting": "[8]; promotion experiment, p < 0.01", "result": "significant reduction"}, {"measurement": "serum AST level", "setting": "[8]; promotion experiment, p < 0.01", "result": "significant reduction"}, {"measurement": "liver histology (H & E staining)", "setting": "rat liver (DEN & CCl4); progression experiment", "result": "normal alignment of hepatocytes around central vein"}, {"measurement": "liver histology (H & E staining)", "setting": "rat liver (DEN & CCl4); promotion experiment", "result": "Liver structure was restored and hepatocyte arrangement was not as distorted as that of the positive control sections. Vacuolization was reduced and distinct cytoplasm was visible"}, {"measurement": "level of wild type p53 (wt. p53 : β-actin ratio)", "setting": "wild type p53; progression experiment, vs positive control (p < 0.05)", "result": "a significant increase"}, {"measurement": "level of wild type p53 (wt. p53 : β-actin ratio)", "setting": "wild type p53; promotion experiment, vs positive control", "result": "no significant difference"}, {"measurement": "total p53 protein level (discussion)", "setting": "[9]; AND-treated group", "result": "the total p53 protein was increased"}, {"measurement": "levels of total p53 protein expression", "setting": "[9]; both experiments, vs negative control (no significant difference)", "result": "higher levels of total p53 protein expression"}, {"measurement": "levels of total p53 (total p53 : β-actin ratio)", "setting": "[9]; both experiments, vs positive control", "result": "no significant difference"}, {"measurement": "cytotoxicity", "setting": "[10]; Clone 9, at a concentration of 18 μM (Fig. 3)", "result": "significant cytotoxicity was also detectable"}, {"measurement": "IC50", "setting": "[10]; Clone 9, 24 hrs", "result": 22, "unit": "µM"}, {"measurement": "IC50", "setting": "[10]; Clone 9, 48 hrs", "result": 18, "unit": "µM"}, {"measurement": "IC50", "setting": "[10]; Clone 9, 72 hrs", "result": 18, "unit": "µM"}]}]}
